# Where “and” joins values, the source holds several entries; their conditions need not be identical. Identical values can stand only once. Like-named read-outs stand apart in the source and are kept apart here.
# What was measured:
# ENaC channels = system: ENaC channels; design: method as in Canessa et al., 1994; details: ref Canessa et al., 1994; cited from earlier work
# [1] = system: endogenous pH-gated responses in HEK cells; design: method as in Gunthorpe et al. (2001); details: manual patch clamp, ref Gunthorpe et al. (2001), read-out: affinity for inhibition of endogenous pH-gated responses; cited from earlier work
# [2] = system: endogenous proton-activated currents in HEK cells; test: cells; assay type: cell-based, human; details: for IC50: pH 6.5 activation, QPatch 48, read-out: mean IC50
# Procedure: CHO hASIC1a cells were cultured according to vendor instructions (B-SYS GmbH) and HEK cells using standard in-house methods. Both cell lines were harvested using optimized protocols and re-suspended in serum-free media (Gibco CHO-S-SFM from Thermo Fisher Scientific for CHO cells, and Ex-Cell 302 from Merck Sigma-Aldrich for HEK cells) to obtain a suspension of cells with smooth membranes and little debris, before transfer to the automated cell hotel consisting of a 60 ml plastic container (Sophion SB2050) and a magnetic stir bar to prevent cell clumping. An aliquot of cells is then aspirated into a 1 ml microcentrifuge tube and spun down (typically 150 g for 2.5 min) and the supernatant discarded before a user-defined volume of external solution is added by the robot and the cells re-suspended to achieve the desired final cell suspension density before application to primed QPlates. Cell capture, sealing and whole-cell access was achieved using optimized QPatch protocols before currents were recorded using a holding potential of −60 mV. […] Cells were washed three times with external pH 7.3 solution (5 μl) between applications of activating acidic solution to establish a stable ASIC1a current baseline. […] Each concentration of reference compound was applied to each cell before (i.e., during each pH 7.3 application period) and during each pH stimulus (IC50 mode). Thus, each concentration of test compound was pre-incubated with cells for at least 2 min before, and then during each acidic solution challenge, before wash-off in a neutral pH 7.3 solution that contained the next concentration of the same compound. Cells were allowed at least 2 min between applications of acidic solution to enable ASIC1a receptors to recover from desensitization.
# Concentration-response xC50 curves from Patchliner and QPatch 48 experiments were calculated by plotting %inhibition (antagonists) or activation (pH) data against concentration in Prism software (GraphPad), using the variable sigmoidal dose-response function to fit the Hill equation with theoretical minimum block of 0% and maximum block of 100% and a free constant for Hill slope. Inward current amplitudes were compared to the response to a control pH application (typically pH 6.5) prior to antagonist application or excitation by solutions of different pH to enable calculation of %inhibition or %activation for each cell.
# To quickly confirm a previous publication that HEK cells express endogenous ASIC1a receptor channels and assess the suitability of this cell system for drug discovery screening on APC platforms, we utilized the medium throughput QPatch 48 device. The QPatch uses 48 well microfluidic planar borosilicate chips and coated titanium pipette tips to make whole-cell recordings and sequentially apply small liquid volumes to enable rapid activation followed by slower deactivation (wash-off) of ligand-gated ionotropic responses. HEK cells were voltage-clamped at −60 mV and maintained in external solution at pH 7.4 to avoid steady-state desensitization of ASIC1 receptor channels. Cells were stimulated by external solutions with pH values ranging between 7.0 and 5.5 that evoked rapidly activating inward currents, followed by wash-off in pH 7.4 solution.
# hASIC1a [3] = target: T1, hASIC1a (Homo sapiens, UniProt P78348); test: Patchliner APC, CHO ASIC1a currents, stacked tip application, voltage clamp; assay type: cell-based; design: host or cells: CHO; details: cumulative application, pH 6.5, stacked tip, single hole
# T1 sequence (P78348 1-528): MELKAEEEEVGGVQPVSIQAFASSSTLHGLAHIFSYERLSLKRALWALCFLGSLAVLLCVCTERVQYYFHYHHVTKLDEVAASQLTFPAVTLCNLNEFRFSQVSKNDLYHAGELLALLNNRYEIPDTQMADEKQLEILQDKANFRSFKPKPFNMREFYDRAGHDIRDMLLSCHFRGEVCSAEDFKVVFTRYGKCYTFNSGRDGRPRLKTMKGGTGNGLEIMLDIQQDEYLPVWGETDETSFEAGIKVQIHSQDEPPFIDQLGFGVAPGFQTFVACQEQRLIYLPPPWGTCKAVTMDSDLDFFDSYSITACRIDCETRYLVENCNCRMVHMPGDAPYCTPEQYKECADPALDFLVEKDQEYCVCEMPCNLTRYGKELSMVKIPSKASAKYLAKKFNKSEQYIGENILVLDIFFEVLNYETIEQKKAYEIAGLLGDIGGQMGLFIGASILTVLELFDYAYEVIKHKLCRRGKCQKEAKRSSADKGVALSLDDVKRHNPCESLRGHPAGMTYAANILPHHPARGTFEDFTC
# Procedure: CHO cells were cultured according to vendor instructions (B-SYS GmbH) and harvested using optimized protocols before transfer of the cell suspension to the automated cell hotel on the Patchliner where cells are stored at RT (∼20°C) in a small Teflon vessel and repetitively aspirated every 30 s using a 1 ml plastic pipette tip to prevent aggregation. The cell hotel parameters can be adjusted (interval, speed and volume of aspiration) depending on the cell type to maintain viability for 2–3 h. Cell sealing was conducted in the presence of elevated divalent cations and lowered Na^+, which were washed off after whole-cell access was achieved and replaced with external solution while cells were voltage clamped at a holding potential of −60 mV. […]
# Concentration-response xC50 curves from Patchliner and QPatch 48 experiments were calculated by plotting %inhibition (antagonists) or activation (pH) data against concentration in Prism software (GraphPad), using the variable sigmoidal dose-response function to fit the Hill equation with theoretical minimum block of 0% and maximum block of 100% and a free constant for Hill slope. […]
# hASIC1a [4] = target: T1, hASIC1a; design: host or cells: CHO; details: ref Leng et al., 2016; read-out: Literature IC50; cited from earlier work
SMILES,sensitivity of ENaC channels to inhibition (ENaC channels) [nM],IC50 [1] [nM],IC50 ([2]; HEK cells),"IC50 ([2]; Homo sapiens, HEK293, pH 6.5, HEK cells) [nM]","inhibition at 0.3 µM ([2]; Homo sapiens, HEK293, read-out: inhibition of pH-evoked current (some cells)) [%]",IC50 (hASIC1a [3]) [nM],IC50 (hASIC1a [4]) [nM]
N=C(N)NC(=O)c1nc(Cl)c(N)nc1N [Amiloride],100,2200,2000 to 3000 nM and 2800 nM,2820,~25,,
NC(=NCc1ccccc1)NC(=O)c1nc(Cl)c(N)nc1N [Benzamil],,,,,,3650,3500
